Measured values as given in patent EP2208725A1, “Novel specific inhibitors of ubiquitin specific protease 7, the pharmaceutical compositions thereof and their therapeutic applications” (Hybrigenics S.A., priority 2009, dated 2010).

Tests used:
USP5 = molecular target: T1, USP5 (Homo sapiens, UniProt P45974); test: USP5 activity assay (Ub-AMC); format: biochemical; details: 300 nM Ub-AMC, 300 pM enzyme; compounds tested from 200 µM to 91 nM; unit inferred; read-out: Inhibition of cysteine protease activities: USP 5
T1 sequence (P45974 1-858): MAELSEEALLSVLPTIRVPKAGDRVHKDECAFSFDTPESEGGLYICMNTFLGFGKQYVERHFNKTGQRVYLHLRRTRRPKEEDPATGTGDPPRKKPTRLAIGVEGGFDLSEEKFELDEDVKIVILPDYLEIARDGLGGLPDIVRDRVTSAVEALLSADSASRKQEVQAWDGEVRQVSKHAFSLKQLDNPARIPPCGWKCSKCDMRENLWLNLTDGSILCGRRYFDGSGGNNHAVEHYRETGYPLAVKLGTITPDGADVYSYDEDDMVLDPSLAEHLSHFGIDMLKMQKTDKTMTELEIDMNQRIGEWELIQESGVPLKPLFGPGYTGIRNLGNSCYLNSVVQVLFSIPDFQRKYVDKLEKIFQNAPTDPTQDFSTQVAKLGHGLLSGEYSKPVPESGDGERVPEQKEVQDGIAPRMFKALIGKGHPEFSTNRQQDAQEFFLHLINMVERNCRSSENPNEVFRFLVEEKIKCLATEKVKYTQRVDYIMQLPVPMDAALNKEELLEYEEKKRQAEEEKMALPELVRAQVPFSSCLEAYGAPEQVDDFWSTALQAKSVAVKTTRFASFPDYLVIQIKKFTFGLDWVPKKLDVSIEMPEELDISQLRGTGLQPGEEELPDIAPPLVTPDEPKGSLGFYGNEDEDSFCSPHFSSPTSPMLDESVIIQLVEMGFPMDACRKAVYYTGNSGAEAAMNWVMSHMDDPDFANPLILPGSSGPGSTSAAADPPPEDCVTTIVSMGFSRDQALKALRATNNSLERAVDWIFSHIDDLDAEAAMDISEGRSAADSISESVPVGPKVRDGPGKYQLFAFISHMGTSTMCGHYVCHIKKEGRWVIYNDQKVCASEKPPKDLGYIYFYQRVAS
Experimental: USP5 was diluted in USP buffer (50 mM Tris HCl; 0.5 mM EDTA; 5 mM DTT; 0.01% Triton X-100; Bovine Serum Albumin 0.05 mg.ml^-1 pH 7.6). Compounds stocks (100 mM) were stored at -20°C in DMSO. Compounds were tested at different concentrations: from 200 µM to 91 nM. Reactions were performed as duplicates in Black LJL 96 well plates (HE microplates; Molecular Devices; 20 µl final reaction volume). The substrate concentration for USP5 was 300 nM Ub-AMC (Boston Biochem). The concentrations of the enzyme (USP5) in specificity assays was 300 pM. The concentrations were determined in order to perform specificity assays under initial velocities at fixed substrate concentration. Compounds were pre-incubated with enzymes for 30 minutes at 25°C. Reactions were initiated by addition of substrate to the plates containing the enzymes (+/- compounds) diluted in assay buffer. Reactions were incubated for 60 minutes at 37°C. Reactions were stopped by adding acetic acid (100 mM final). Readings were performed on a Pherastar Fluorescent Reader (BMG). λ Emission 380 nm; λ Excitation = 460 nm. Data (mean values +/- standard deviation) were analyzed as % of control (no compound) and plotted as percentage versus the Log of the compound concentration using GraphPad (Prism). Data were fitted to a sigmoidal model (variable slope).

UCH-L3 = molecular target: T2, UCH-L3 (Homo sapiens, UniProt P15374); test: UCH-L3 activity assay (Ub-AMC); format: biochemical; details: 400 nM Ub-AMC, 13 pM enzyme; compounds tested from 200 µM to 91 nM; unit inferred; read-out: Inhibition of cysteine protease activities: Uch-L3
T2 sequence (P15374 1-230): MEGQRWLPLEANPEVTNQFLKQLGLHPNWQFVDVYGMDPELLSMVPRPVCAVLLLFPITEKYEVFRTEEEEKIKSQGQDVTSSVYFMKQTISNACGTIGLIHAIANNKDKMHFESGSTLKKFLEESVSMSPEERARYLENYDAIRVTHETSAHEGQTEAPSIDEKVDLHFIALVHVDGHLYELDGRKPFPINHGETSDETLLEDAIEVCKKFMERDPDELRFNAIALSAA
Experimental: UCH-L3 was diluted in USP buffer (50 mM Tris HCl; 0.5 mM EDTA; 5 mM DTT; 0.01% Triton X-100; Bovine Serum Albumin 0.05 mg.ml^-1 pH7.6). Compounds stocks (100 mM) were stored at -20°C in DMSO. Compounds were tested at different concentrations: from 200 µM to 91 nM. Reactions were performed as duplicates in Black LJL 96 well plates (HE microplates; Molecular Devices; 20 µl final reaction volume). The substrate concentration for UCH-L3 was 400 nM Ub-AMC (Boston Biochem). The concentration of the enzyme (UCH-L3) in specificity assays was 13 pM. The concentrations were determined in order to perform specificity assays under initial velocities at fixed substrate concentration. Compounds were pre-incubated with enzymes for 30 minutes at 25°C. Reactions were initiated by addition of substrate to the plates containing the enzymes (+/- compounds) diluted in assay buffer. Reactions were incubated for 60 minutes at 37°C. Reactions were stopped by adding acetic acid (100 mM final). Readings were performed on a Pherastar Fluorescent Reader (BMG). λ Emission 380 nm; λ Excitation = 460 nm. Data (mean values +/- standard deviation) were analyzed as % of control (no compound) and plotted as percentage versus the Log of the compound concentration using GraphPad (Prism). Data were fitted to a sigmoidal model (variable slope).

Structure (SMILES)	IC50 (USP5) [µM]	IC50 (UCH-L3) [µM]
CC(=O)C1=C(O)C(=O)N(CCc2ccc(Cl)cc2)C1c1ccc(Br)cc1 (centres unmarked) [Example 25, 4-acetyl-5-(4-bromo-phenyl)-1-[2-(4-chloro-phenyl)-ethyl]-3-hydroxy-1,5-dihydro-pyrrol-2-one]	> 200	> 200
CC(=O)C1=C(O)C(=O)N(CCc2ccc(Br)cc2)C1c1ccc(Br)cc1 (centres unmarked) [Example 26, 4-acetyl-5-(4-bromo-phenyl)-1-[2-(4-bromo-phenyl)-ethyl]-3-hydroxy-1,5-dihydro-pyrrol-2-one]	> 200	> 200
CC(=O)C1=C(O)C(=O)N(CCc2ccc(Cl)c(Cl)c2)C1c1ccc(Br)cc1 (centres unmarked) [Example 28, 4-acetyl-5-(4-bromo-phenyl)-1-[2-(3,4-dichloro-phenyl)-ethyl]-3-hydroxy-1,5-dihydro-pyrrol-2-one]	> 200	> 200
COc1cccc(CCN2C(=O)C(O)=C(C(C)=O)C2c2ccc(Br)cc2)c1 (centres unmarked) [Example 30, 4-acetyl-5-(4-bromo-phenyl)-3-hydroxy-1-[2-(3-methoxyphenyl)-ethyl]-1,5-dihydro-pyrrol-2-one]	> 200	> 200
COc1ccc(CCN2C(=O)C(O)=C(C(C)=O)C2c2ccc(Br)cc2)cc1 (centres unmarked) [Example 32, 4-acetyl-5-(4-bromo-phenyl)-3-hydroxy-1-[2-(4-methoxyphenyl)-ethyl]-1,5-dihydro-pyrrol-2-one]	> 200	> 200
CC(=O)C1=C(O)C(=O)N(CCc2ccc(F)cc2)C1c1ccc(Br)cc1 (centres unmarked) [Example 33, 4-acetyl-5-(4-bromo-phenyl)-3-hydroxy-1-[2-(4-fluorophenyl)-ethyl]-1,5-dihydro-pyrrol-2-one]	> 200	> 200
CCOc1ccc(CCN2C(=O)C(O)=C(C(C)=O)C2c2ccc(Br)cc2)cc1 (centres unmarked) [Example 34, 4-acetyl-5-(4-bromo-phenyl)-3-hydroxy-1-[2-(4-ethoxy-phenyl)-ethyl]-1,5-dihydro-pyrrol-2-one]	> 200	> 200
CC(=O)C1=C(O)C(=O)N(CCc2ccccc2)C1c1ccc2c(c1)OCO2 (centres unmarked) [Example 37, 4-acetyl-5-benzo[1,3]dioxol-5-yl-3-hydroxy-1-phenethyl-1,5-dihydro-pyrrol-2-one]	> 200	> 200
CC(=O)C1=C(O)C(=O)N(CCc2ccccc2)C1c1ccc(Br)c(Br)c1 (centres unmarked) [Example 41, 4-acetyl-5-(3,4-dibromo-phenyl)-3-hydroxy-1-phenethyl-1,5-dihydro-pyrrol-2-one]	> 200	> 200
CC(=O)C1=C(O)C(=O)N(CCc2ccccc2)C1c1cccnc1Cl (centres unmarked) [Example 42, 4-acetyl-5-(2-chloro-pyridin-3-yl)-3-hydroxy-1-phenethyl-1,5-dihydro-pyrrol-2-one]	> 200	> 200
CC(=O)C1=C(O)C(=O)N(CCc2ccc(Br)cc2)C1c1ccc(Cl)cc1 (centres unmarked) [Example 45, 4-Acetyl-5-(4-chlorophenyl)-1-[2-(4-bromophenyl)-ethyl]-3-hydroxy-1,5-dihydro-pyrrol-2-one]	> 200	> 200
CC(=O)C1=C(O)C(=O)N(CCc2ccc(Cl)cc2)C1c1ccc(Cl)cc1 (centres unmarked) [Example 46, 4-Acetyl-5-(4-chlorophenyl)-1-[2-(4-chlorophenyl)-ethyl]-3-hydroxy-1,5-dihydro-pyrrol-2-one]	> 200	> 200
CC(=O)C1=C(O)C(=O)N(CCc2ccc(Cl)cc2Cl)C1c1ccc(Br)cc1 (centres unmarked) [Example 47, 4-Acetyl-5-(4-bromophenyl)-1-[2-(2,4-dichlorophenyl)-ethyl]-3-hydroxy-1,5-dihydro-pyrrol-2-one]	> 200	> 200
